Columns and labels:
HepG2 [1] = test: Antihyperglycemic activity in human HepG2 cells assessed as stimulation of glucose consumption at 2 uM after 36 hrs by glucose oxidase assay in presence of high glucose condition relative to control; type: functional
HepG2 [2] = test: Cytotoxicity against human HepG2 cells assessed as cell viability up to 30 uM by MTT assay; type: cell-based
[3] = Cytotoxicity against mouse 3T3L1 cells assessed as cell viability up to 30 uM by MTT assay; type: cell-based; conditions: 3t3-l1
[4] = Antihyperglycemic activity in mouse 3T3L1 cells assessed as stimulation of glucose consumption at 2 uM after 36 hrs by glucose oxidase assay in presence of high glucose condition relative to control; type: functional, 3T3-L1

Q: With `COc1ccc(/C=C\C(=O)NCCc2ccc(O[C@@H]3O[C@@H](C)[C@H](O)[C@@H](O[C@@H]4O[C@H](CO)[C@@H](O)[C@H](O)[C@H]4O)[C@H]3O[C@@H]3O[C@H](CO)[C@@H](O)[C@H](O)[C@H]3O)cc2)cc1` as the compound, how does the “fold change (FC)” value (HepG2 [1]) read?
A: Its value is 1.7.

Q: What about the Activity (HepG2 [2]) of the same compound?
A: Its Activity is “Non-toxic”.

Q: And the Activity [3]?
A: Its Activity is “Non-toxic”.

Q: What about the “fold change (FC)” value [4] of the same compound?
A: Its value is 1.6.

Q: What does the source list for `COc1ccc(/C=C\C(=O)NCCc2ccc(O[C@@H]3O[C@@H](C)[C@H](OC(C)=O)[C@@H](O[C@@H]4O[C@H](CO)[C@@H](O)[C@H](O)[C@H]4O)[C@H]3O[C@@H]3O[C@H](COC(C)=O)[C@@H](O)[C@H](O)[C@H]3O)cc2)cc1`?
A: fold change (FC) (HepG2 [1]): 1.7; Activity (HepG2 [2]): Non-toxic; Activity [3]: Non-toxic; fold change (FC) [4]: 1.6

Q: Which “fold change (FC)” value (HepG2 [1]) does the source give for `COc1ccc(/C=C\C(=O)NCCc2ccc(O[C@@H]3O[C@@H](C)[C@H](OC(C)=O)[C@@H](O[C@@H]4O[C@H](COC(C)=O)[C@@H](O)[C@H](O)[C@H]4O)[C@H]3O[C@@H]3O[C@H](COC(C)=O)[C@@H](O)[C@H](O)[C@H]3O)cc2)cc1` here?
A: The value was 1.7.

Q: What about the Activity (HepG2 [2]) of the same compound?
A: The Activity was “Non-toxic”.

Q: What about the Activity [3] of the same compound?
A: The Activity was “Non-toxic”.

Q: What about the “fold change (FC)” value [4] of the same compound?
A: Its value is 1.6.

Q: What does the source list for `COc1ccc(/C=C/C(=O)NCCc2ccc(O[C@@H]3O[C@@H](C)[C@H](OC(C)=O)[C@@H](O[C@@H]4O[C@H](COC(C)=O)[C@@H](O)[C@H](O)[C@H]4O)[C@H]3O[C@@H]3O[C@H](COC(C)=O)[C@@H](O)[C@H](O)[C@H]3O)cc2)cc1`?
A: fold change (FC) (HepG2 [1]): 1.7; Activity (HepG2 [2]): Non-toxic; Activity [3]: Non-toxic; fold change (FC) [4]: 1.6

Q: What does the source list for `COc1ccc(/C=C/C(=O)NCCc2ccc(O[C@@H]3O[C@@H](C)[C@H](OC(C)=O)[C@@H](O[C@@H]4O[C@H](CO)[C@@H](O)[C@H](O)[C@H]4O)[C@H]3O[C@@H]3O[C@H](COC(C)=O)[C@@H](O)[C@H](O)[C@H]3O)cc2)cc1`?
A: fold change (FC) (HepG2 [1]): 1.7; Activity (HepG2 [2]): Non-toxic; Activity [3]: Non-toxic; fold change (FC) [4]: 1.6

Q: With `COc1ccc(/C=C/C(=O)NCCc2ccc(O[C@@H]3O[C@@H](C)[C@H](O)[C@@H](O[C@@H]4O[C@H](CO)[C@@H](O)[C@H](O)[C@H]4O)[C@H]3O[C@@H]3O[C@H](CO)[C@@H](O)[C@H](O)[C@H]3O)cc2)cc1` as the compound, how does the “fold change (FC)” value (HepG2 [1]) read?
A: Its value is 2.2.

Q: What about the Activity (HepG2 [2]) of the same compound?
A: The Activity was “Non-toxic”.

Q: What about the Activity [3] of the same compound?
A: Its Activity is “Non-toxic”.

Q: And the “fold change (FC)” value [4]?
A: Its value is 2.5.

Q: With `COc1ccc(/C=C/C(=O)NCCc2ccc(O[C@@H]3O[C@@H](C)[C@H](OC(C)=O)[C@@H](O[C@@H]4O[C@H](CO)[C@@H](O)[C@H](O)[C@H]4O)[C@H]3O[C@@H]3O[C@H](CO)[C@@H](O)[C@H](O)[C@H]3O)cc2)cc1` as the compound, how does the “fold change (FC)” value (HepG2 [1]) read?
A: Its value is 2.1.

Q: And the Activity (HepG2 [2])?
A: Its Activity is “Non-toxic”.

Q: And the Activity [3]?
A: The Activity was “Non-toxic”.

Q: What about the “fold change (FC)” value [4] of the same compound?
A: Its value is 2.1.

Q: With `COc1ccc(/C=C\C(=O)NCCc2ccc(O[C@@H]3O[C@@H](C)[C@H](OC(C)=O)[C@@H](O[C@@H]4O[C@H](CO)[C@@H](O)[C@H](O)[C@H]4O)[C@H]3O[C@@H]3O[C@H](CO)[C@@H](O)[C@H](O)[C@H]3O)cc2)cc1` as the compound, how does the “fold change (FC)” value (HepG2 [1]) read?
A: Its value is 2.2.

Q: And the Activity (HepG2 [2])?
A: The Activity was “Non-toxic”.

Q: And the Activity [3]?
A: The Activity was “Non-toxic”.

Q: What about the “fold change (FC)” value [4] of the same compound?
A: The value was 2.3.

Source: ChEMBL document CHEMBL3108773, “Antihyperglycemic glucosylated coumaroyltyramine derivatives from Teucrium viscidum” (J Nat Prod, 2014)
